Reference: US7183260B2, “C-terminal modified oxamyl dipeptides as inhibitors of the ICE/ced-3 family of cysteine proteases” (Idun Pharmaceuticals, Inc., priority 1998, dated 2007)

Assays:
Format in all cases: biochemical
Conditions in all cases: continuous assay 60 min, reaction initiated by adding enzyme to substrate-inhibitor mixture
MCH-2 = molecular target: T1, MCH-2 (Homo sapiens, UniProt P55212); test: Dissociation constant Ki and irreversible rate constant k3 for irreversible inhibitors (Mch2)
T1 sequence (P55212 24-179 limits assumed): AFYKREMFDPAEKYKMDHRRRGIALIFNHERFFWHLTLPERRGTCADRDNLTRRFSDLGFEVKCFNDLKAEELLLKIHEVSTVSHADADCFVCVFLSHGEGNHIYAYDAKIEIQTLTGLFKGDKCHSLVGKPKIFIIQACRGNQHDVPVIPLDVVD
T1 sequence (P55212 194-293 limits assumed): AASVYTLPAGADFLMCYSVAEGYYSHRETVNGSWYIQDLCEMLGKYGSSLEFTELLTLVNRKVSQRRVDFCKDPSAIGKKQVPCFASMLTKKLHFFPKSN

mICE = molecular target: T2, mICE (Mus musculus, UniProt P29452); test: Dissociation constant Ki and irreversible rate constant k3 for irreversible inhibitors (ICE)
T2 sequence (P29452 123-296 limits assumed): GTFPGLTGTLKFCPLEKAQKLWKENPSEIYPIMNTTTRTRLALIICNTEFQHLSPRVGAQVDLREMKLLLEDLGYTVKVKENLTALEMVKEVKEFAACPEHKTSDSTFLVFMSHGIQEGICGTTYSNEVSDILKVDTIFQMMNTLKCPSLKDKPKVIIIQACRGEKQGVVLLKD
T2 sequence (P29452 315-402 limits assumed): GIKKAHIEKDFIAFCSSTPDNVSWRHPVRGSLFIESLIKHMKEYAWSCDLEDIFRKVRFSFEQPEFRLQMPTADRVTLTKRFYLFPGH

CPP32 = molecular target: T3, CPP32 (Homo sapiens, UniProt P42574); test: Dissociation constant Ki and irreversible rate constant k3 for irreversible inhibitors (CPP32)
T3 sequence (P42574 29-175 limits assumed): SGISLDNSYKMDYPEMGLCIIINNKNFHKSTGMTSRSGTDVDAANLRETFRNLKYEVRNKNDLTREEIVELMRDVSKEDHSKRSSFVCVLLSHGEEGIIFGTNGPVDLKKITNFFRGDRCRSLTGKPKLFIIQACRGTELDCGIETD
T3 sequence (P42574 176-277 limits assumed): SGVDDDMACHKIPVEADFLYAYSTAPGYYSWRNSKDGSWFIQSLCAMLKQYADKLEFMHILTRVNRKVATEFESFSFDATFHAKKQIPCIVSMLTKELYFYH

MCH-5 = MCH-5 (Homo sapiens, UniProt Q14790); test: Dissociation constant Ki and irreversible rate constant k3 for irreversible inhibitors (Mch5)
Chain of MCH-5 (Q14790 217-374 limits assumed, species assumed): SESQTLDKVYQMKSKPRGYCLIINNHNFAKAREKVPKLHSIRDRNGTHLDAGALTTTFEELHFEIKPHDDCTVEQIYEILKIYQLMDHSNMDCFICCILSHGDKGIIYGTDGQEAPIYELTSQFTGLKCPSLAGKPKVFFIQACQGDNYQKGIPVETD
Chain of MCH-5 (Q14790 385-479 limits assumed, species assumed): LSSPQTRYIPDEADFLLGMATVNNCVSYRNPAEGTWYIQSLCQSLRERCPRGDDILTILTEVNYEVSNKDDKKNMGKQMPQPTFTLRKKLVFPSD

Compound | Ki (MCH-2) [nM] | MCH-2 k3/Ki (MCH-2) | Ki (mICE) [nM] | mICE k3/Ki (mICE) | CPP32 k3/Ki (CPP32) | Ki (CPP32) [nM] | Ki (MCH-5) [nM] | MCH-5 k3/Ki (MCH-5)
C[C@H](NC(=O)C(=O)Nc1ccccc1I)C(=O)N[C@@H](CC(=O)O)C(=O)COC(=O)c1c(Cl)cccc1Cl [Example 75] | 34 | 28,200 moles^−1 seconds^−1 | 13 | 1,270,000 moles^−1 seconds^−1 | 67,600 moles^−1 seconds^−1 | 105 | 4 | 551,000 moles^−1 seconds^−1
CC(C)[C@H](NC(=O)C(=O)Nc1c(F)c(F)nc(F)c1F)C(=O)N[C@@H](CC(=O)O)C(=O)COc1c(F)c(F)cc(F)c1F [Example 102] | 22 | 170,000 moles^−1 seconds^−1 | 14 | 1,220,000 moles^−1 seconds^−1 | 153,000 moles^−1 seconds^−1 | 127 | 10 | 389,000 moles^−1 seconds^−1
COc1ccccc1NC(=O)C(=O)N[C@H](C(=O)N[C@@H](CC(=O)O)C(=O)COc1c(F)c(F)cc(F)c1F)C(C)C [Example 95] | 88 | 61,500 moles^−1 seconds^−1 | 6 | 2,068,000 moles^−1 seconds^−1 | 10,800 moles^−1 seconds^−1 | 1090 | 3 | 2,680,000 moles^−1 seconds^−1
C[C@H](NC(=O)C(=O)Nc1cc(C(F)(F)F)ccc1N1CCCC1)C(=O)N[C@@H](CC(=O)O)C(=O)COP(=O)(c1ccccc1)c1ccccc1 [Example 46] | 7.3 | 202,000 moles^−1 seconds^−1 | 5.3 | 1,503,000 moles^−1 seconds^−1 | 78,600 moles^−1 seconds^−1 | 52 | 4.4 | 933,000 moles^−1 seconds^−1
C[C@H](NC(=O)C(=O)Nc1ccccc1C(C)(C)C)C(=O)N[C@@H](CC(=O)O)C(=O)COC(=O)c1c(Cl)cccc1Cl [Example 76] | 235 | 6,960 moles^−1 seconds^−1 | 19 | 537,000 moles^−1 seconds^−1 | 62,900 moles^−1 seconds^−1 | 85 | 22 | 30,200 moles^−1 seconds^−1
CC(C)[C@H](NC(=O)C(=O)Nc1cnccn1)C(=O)N[C@@H](CC(=O)O)C(=O)COc1c(F)c(F)cc(F)c1F [Example 103] | 17 |  | 5.3 |  |  | 60 | 4.7 | 
C[C@H](NC(=O)C(=O)Nc1ccccc1F)C(=O)N[C@@H](CC(=O)O)C(=O)COC(=O)c1c(Cl)cccc1Cl [Example 39] | 23 | 129,000 moles^−1 seconds^−1 | 116 | 172,000 moles^−1 seconds^−1 | 68,900 moles^−1 seconds^−1 | 202 | 40 | 155,000 moles^−1 seconds^−1
CC(C)[C@H](NC(=O)C(=O)Nc1cccc2ccccc12)C(=O)N[C@@H](CC(=O)O)C(=O)COc1c(-c2ccccc2)oc2ccccc2c1=O [Example 9] | 336 |  | 128 | 82,100 moles^−1 seconds^−1 | 43,600 moles^−1 seconds^−1 | 59 | 453 | 0 mol⁻¹ s⁻¹
C[C@H](NC(=O)C(=O)Nc1ccccc1C(C)(C)C)C(=O)N[C@@H](CC(=O)O)C(=O)COc1ccccc1F [Example 31] | 71 | 54,900 moles^−1 seconds^−1 | 31 | 442,000 moles^−1 seconds^−1 | 67,700 moles^−1 seconds^−1 | 60 | 45 | 119,000 moles^−1 seconds^−1
CC(C)[C@H](NC(=O)C(=O)Nc1cccc2ccccc12)C(=O)N[C@@H](CC(=O)O)C(=O)COC(=O)c1c(Cl)cccc1Cl [Example 4] | 9 |  | 6.1 |  |  | 14 | 4 | 
C[C@H](NC(=O)C(=O)Nc1ccccc1Cl)C(=O)N[C@@H](CC(=O)O)C(=O)COC(=O)c1c(Cl)cccc1Cl [Example 58] | 18 | 281,000 moles^−1 seconds^−1 | 54 | 278,000 moles^−1 seconds^−1 | 323,000 moles^−1 seconds^−1 | 43 | 7.1 | 396,000 moles^−1 seconds^−1
C[C@H](NC(=O)C(=O)Nc1ccccc1Cl)C(=O)N[C@@H](CC(=O)O)C(=O)COP(=O)(c1ccccc1)c1ccccc1 [Example 41] | 11 | 247,000 moles^−1 seconds^−1 | 140 | 103,000 moles^−1 seconds^−1 | 162,000 moles^−1 seconds^−1 | 35 | 27 | 179,000 moles^−1 seconds^−1
C[C@H](NC(=O)C(=O)Nc1cccc2c1CCCC2)C(=O)N[C@@H](CC(=O)O)C(=O)COP(=O)(c1ccccc1)c1ccccc1 [Example 61] | 19 | 120,000 moles^−1 seconds^−1 | 23 | 315,000 moles^−1 seconds^−1 | 157,000 moles^−1 seconds^−1 | 69 | 38 | 71,800 moles^−1 seconds^−1
C[C@H](NC(=O)C(=O)NCc1ccccc1)C(=O)N[C@@H](CC(=O)O)C(=O)COc1c(F)c(F)cc(F)c1F [Example 51] | 70 | 42,800 moles^−1 seconds^−1 | 1010 | 13,900 moles^−1 seconds^−1 | 54,300 moles^−1 seconds^−1 | 370 | 83 | 23,100 moles^−1 seconds^−1
CC(C)[C@H](NC(=O)C(=O)NC1CCCc2ccccc21)C(=O)N[C@@H](CC(=O)O)C(=O)COc1c(F)c(F)cc(F)c1F (stereo partly shown) [Example 104] | 13 | 160,000 moles^−1 seconds^−1 | 4.5 | 2,320,000 moles^−1 seconds^−1 | 98,600 moles^−1 seconds^−1 | 84 | 5.2 | 456,000 moles^−1 seconds^−1
CC(C)[C@H](NC(=O)C(=O)NCCc1ccccc1)C(=O)N[C@@H](CC(=O)O)C(=O)COc1c(F)c(F)cc(F)c1F [Example 80] | 175 | 12,600 moles^−1 seconds^−1 | 182 | 77,100 moles^−1 seconds^−1 | 13,400 moles^−1 seconds^−1 | 515 | 162 | 16,600 moles^−1 seconds^−1
CC(C)[C@H](NC(=O)C(=O)Nc1ccccc1-c1ccccc1)C(=O)N[C@@H](CC(=O)O)C(=O)COc1c(F)c(F)cc(F)c1F [Example 83] | 85 | 31,700 moles^−1 seconds^−1 | 135 | 127,000 moles^−1 seconds^−1 | 25,400 moles^−1 seconds^−1 | 251 | 30 | 65,300 moles^−1 seconds^−1
